Data on 2 compounds can be found in patent US20070031342A1, “Sustained release microparticles for pulmonary delivery” (Nektar Therapeutics, priority 2005, published 2007).

The conditions of series [1]: cited from earlier work.
Series [2] in a line: Rabbit aerosol inhalation model, serum sCT concentration after intratracheal aerosol administration. Type of series: in vivo. The settings on record: single intratracheal aerosol administration. How it is done:
The in vivo dissolution properties of the composition were determined in a rabbit aerosol inhalation model. In this test, the serum sCT concentration was measured for increasing time following intratracheal aerosol administration for sustained release microparticles comprising 20% w/w encapsulated sCT and compared to the concentration of a control sample comprising neat 20% w/w sCT powder. […] In contrast, the absorption of the encapsulated sCT of the microparticles reaches its maximum blood levels at 4 hours post administration and are sustained to at least 24 hours. […] Accordingly, the encapsulated sCT microparticles prepared according to the above method provide improved sustain release results over the unencapsulated sCT, by increasing the duration over which the drug is released to provide a more controlled dose of the sCT drug.

Read-outs that look alike come from different tables or passages of the source.

Regarding `CCCC1O[C@@H]2C[C@H]3[C@@H]4CCC5=CC(=O)C=C[C@]5(C)[C@H]4[C@@H](O)C[C@]3(C)[C@]2(C(=O)CO)O1` (stereo partly drawn) [budesonide], in series [1] (following inhalation delivery, Pulmicort Turbuhaler), the tmax is about 30 min. Further, the absolute bioavailability in series [1] (inhaled) is listed as 39%. The bioavailability in series [1] (nasal) is listed as 21±6%; in series [1] (oral), 10.7±4.3%.
As to `CC(C)C[C@H](NC(=O)[C@H](CCCCN)NC(=O)CNC(=O)[C@H](CC(C)C)NC(=O)[C@@H](NC(=O)[C@@H]1CSSC[C@H](N)C(=O)N[C@@H](CO)C(=O)N[C@@H](CC(N)=O)C(=O)N[C@@H](CC(C)C)C(=O)N[C@@H](CO)C(=O)N[C@@H]([C@@H](C)O)C(=O)N1)C(C)C)C(=O)N[C@@H](CO)C(=O)N[C@@H](CCC(N)=O)C(=O)N[C@@H](CCC(=O)O)C(=O)N[C@@H](CC(C)C)C(=O)N[C@@H](Cc1c[nH]cn1)C(=O)N[C@@H](CCCCN)C(=O)N[C@@H](CC(C)C)C(=O)N[C@@H](CCC(N)=O)C(=O)N[C@H](C(=O)N[C@@H](Cc1ccc(O)cc1)C(=O)N1CCC[C@H]1C(=O)N[C@@H](CCCNC(=N)N)C(=O)N[C@H](C(=O)N[C@@H](CC(N)=O)C(=O)N[C@H](C(=O)NCC(=O)N[C@@H](CO)C(=O)NCC(=O)N[C@H](C(=O)N1CCC[C@H]1C(N)=O)[C@@H](C)O)[C@@H](C)O)[C@@H](C)O)[C@@H](C)O` [neat salmon calcitonin], the tmax in series [2] (serum, inhaled or intranasal, read-out: time to maximum concentration in the blood (converted)) is 15 min. Moreover, in series [2], the “time after which blood levels return to baseline” value worked out at 3 h.

As usually defined, the bioavailability is the share of a dose that reaches the circulation, judged against a reference dose that is usually intravenous.
